Measurements as given in patent EP1985629A1, “Pro-apoptotic molecules and therapeutic uses thereof” (UNIVERSITA DEGLI STUDI DI GENOVA, priority 2007, dated 2008).
Where a SMILES comes first, the peptide text is derived from it. [ ]: non-standard residue; d: D form. Aib = CC(C)(N)C(=O)O

Tests used:
Bcl-XL = molecular target: T1, Bcl-XL (Homo sapiens, UniProt Q07817, S2L); assay: Fluorescence anisotropy binding and competition binding assay; settings: competition binding assay: BakF-BH3 2E-8 M, competitor peptide 2E-7 M, Bcl-XL 2E-8 M to 1E-6 M; 45 min, 30°C; read-out: Weighted mean Kd
T1 construct: with the C-terminus truncated; His6; made in house; host or cells: Escherichia coli BL21 (pLys)
Experimental: Fluorescence Anisotropy was monitored with a Polarion Instrument (Tecan, Austria): excitation wavelength = 485 nm, emission wavelength = 535 nm. […] Anisotropy values were studied at a fixed concentration of fluoresceinated Bak BH3 molecule (2E-8 M), a fixed concentration of peptide inhibitors (2E-7 M) and increasing concentrations of Bel-XL (from 2E-8 M to 1E-6 M). Experiments were performed in 96-wells black non-binding plates (Corning), the experimental volume was always 200 µl / well. Reagents were mixed at room temperature and maintained at a constant temperature (30°C) during the measurements. Anisotropy measurements were performed at different times of incubation to assess the stability of the reactions. […]
For simple binding experiments we evaluated the Kd using a nonlinear regression analysis [NLIN SAS] to fit the Lundblad equation [38]. […]
We calculated the expected Anisotropy value solving a third degree equation obtained extending the simple binding equation to a competitive binding inhibition assay. […]
Point estimates of each equilibrium constant were evaluated using meta-analytical tools weighting each experimental result for its estimated variance. […]
Fluorescence Anisotropy (FA) is a quantitative technique to analyze the interaction of a smaller fluorescent molecule with a larger non fluorescent molecule. […]

[1] = Circular dichroism, relative content of secondary structure elements; type: physicochemical; design: key to α-Helix / β-Strands / β-Turns / Random: relative content as fraction, from CDSSTR deconvolution; settings: CDSSTR deconvolution
Experimental: Circular dichroism (CD) spectra in the far-UV region (190-260 nm) were collected on a Jasco J-715 spectropolarimeter using a 0.1 cm path-length cuvette. Temperature was kept at 25°C by a Peltier device. Peptide concentration was determined from the absorption of the aromatic residues at 280 nm.
Peptides solutions: Bim-BH3Y and Bim-BH3YA2Aib were suspended in water and potassium hydroxide was added up to complete solubilization. 072RB was dissolved in water. Concentration of stock solutions was about 0.1 mg/ml. For circular dichroism measurements, stock solutions were diluted in 10 mM potassium phosphate buffer, pH 7.
The relative content of secondary structure elements was calculated with the deconvolution program CDSSTR [31] (Table 2). […] 072RB has the highest helical content in the set examined here (0.30 α-helix percent).

[2] = Peptides stability in medium with 10% FBS or in 100% FBS (HPLC-MS); type: in vitro ADME; settings: medium (RPMI 1640) with 10% FBS, 37°C, 32 µM; calculated by linear regression
Experimental: Compounds were added to the medium solution of serum 10% or 100% FBS at the final concentration of 32 µM. Several extraction mixtures were attempted: MeOH; MeOH with 0,1% trifluoroacetic acid (TFA); (H2O: MeOH) 1:1, 1:4, 4;1. A perchloric acid (PCA) protein precipitation protocol was also tried. […] In both cases ice-cold methanol was added to the peptide solution. The mixture was centrifuged and the resulting supernatant was then added with ice-cold methanol (alone or containing 0,1% TFA) at a 1:1 final ratio and this procedure was repeated twice. Before extraction peptides were incubated in 10% FBS or 100% FBS at 37°C and, at different incubation times (0', 6, 24 and 48 hours), a sample of 50 µl was collected to be analyzed by HPLC-MS.

[3] = relative content, 10 mM potassium phosphate buffer, pH 7, 25°C

T1 sequence (Q07817 1-212 S2L): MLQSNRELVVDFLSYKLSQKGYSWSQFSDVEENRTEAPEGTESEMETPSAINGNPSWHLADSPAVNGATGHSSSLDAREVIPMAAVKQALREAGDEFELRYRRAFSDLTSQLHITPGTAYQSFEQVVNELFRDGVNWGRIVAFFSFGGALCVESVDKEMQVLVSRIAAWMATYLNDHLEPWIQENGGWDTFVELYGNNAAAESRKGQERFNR

## CC[C@H](C)[C@H](NC(=O)[C@H](CCCNC(=N)N)NC(=O)[C@H](CCCNC(=N)N)NC(=O)[C@H](CC(C)C)NC(=O)[C@H](CCC(=O)O)NC(=O)[C@H](CCC(N)=O)NC(=O)C(C)(C)NC(=O)[C@@H](NC(=O)[C@H](Cc1ccc(O)cc1)NC(=O)[C@@H](NC(=O)[C@H](CCC(=O)O)NC(=O)[C@@H]1CCCN1C(=O)[C@H](CCCNC(=N)N)NC(=O)[C@H](CCSC)NC(=O)[C@@H](N)CC(=O)O)[C@@H](C)CC)[C@@H](C)CC)C(=O)NCC(=O)N[C@@H](CC(=O)O)C(=O)N[C@@H](C)C(=O)N[C@@H](Cc1ccccc1)C(=O)N[C@@H](CC(N)=O)C(=O)NC(C)(C)C(=O)N[C@@H](Cc1ccc(O)cc1)C(N)=O [Bim-BH3YA2Aib] (H-DMRPEIYI[Aib]QELRRIGDAFN[Aib]Y-NH2; N-terminus and C-terminus assumed)
Bcl-XL
  Kd: 12 nM
[1]
  relative content of helices: 0.15 α-helix percent
[1]; [3]
  Random: 0.56
  α-Helix: 0.15
  β-Strands: 0.14
  β-Turns: 0.15
[2]
  half-life: 99,0 h
